The text below walks through data of patent US20060141076A1, “Morinda citrifolia based compositions and methods for inhibiting xanthine oxidase” (priority 2004, published 2006).

This test addresses T1, Xanthine Oxidase (Bos taurus, UniProt P80457).
T1 construct: Xanthine Oxidase was obtained from Bovine butter milk; from tissue; host or cells: bovine buttermilk
Briefly: Xanthine oxidase inhibition assay (uric acid quantitated by spectrophotometer, 165 μM xanthine substrate). The format is biochemical, Bovine. Conditions: Allopurinol comparison; concentration not given. The text has this:
All other results are expressed in terms of that assay's quantitation method. For primary assays, only the lowest concentration with a significant response judged by the assays' criteria, is shown in this summary.
Methods employed in this study were adapted from the scientific literature to maximize reliability and reproducibility.

T1 sequence (P80457 whole entry): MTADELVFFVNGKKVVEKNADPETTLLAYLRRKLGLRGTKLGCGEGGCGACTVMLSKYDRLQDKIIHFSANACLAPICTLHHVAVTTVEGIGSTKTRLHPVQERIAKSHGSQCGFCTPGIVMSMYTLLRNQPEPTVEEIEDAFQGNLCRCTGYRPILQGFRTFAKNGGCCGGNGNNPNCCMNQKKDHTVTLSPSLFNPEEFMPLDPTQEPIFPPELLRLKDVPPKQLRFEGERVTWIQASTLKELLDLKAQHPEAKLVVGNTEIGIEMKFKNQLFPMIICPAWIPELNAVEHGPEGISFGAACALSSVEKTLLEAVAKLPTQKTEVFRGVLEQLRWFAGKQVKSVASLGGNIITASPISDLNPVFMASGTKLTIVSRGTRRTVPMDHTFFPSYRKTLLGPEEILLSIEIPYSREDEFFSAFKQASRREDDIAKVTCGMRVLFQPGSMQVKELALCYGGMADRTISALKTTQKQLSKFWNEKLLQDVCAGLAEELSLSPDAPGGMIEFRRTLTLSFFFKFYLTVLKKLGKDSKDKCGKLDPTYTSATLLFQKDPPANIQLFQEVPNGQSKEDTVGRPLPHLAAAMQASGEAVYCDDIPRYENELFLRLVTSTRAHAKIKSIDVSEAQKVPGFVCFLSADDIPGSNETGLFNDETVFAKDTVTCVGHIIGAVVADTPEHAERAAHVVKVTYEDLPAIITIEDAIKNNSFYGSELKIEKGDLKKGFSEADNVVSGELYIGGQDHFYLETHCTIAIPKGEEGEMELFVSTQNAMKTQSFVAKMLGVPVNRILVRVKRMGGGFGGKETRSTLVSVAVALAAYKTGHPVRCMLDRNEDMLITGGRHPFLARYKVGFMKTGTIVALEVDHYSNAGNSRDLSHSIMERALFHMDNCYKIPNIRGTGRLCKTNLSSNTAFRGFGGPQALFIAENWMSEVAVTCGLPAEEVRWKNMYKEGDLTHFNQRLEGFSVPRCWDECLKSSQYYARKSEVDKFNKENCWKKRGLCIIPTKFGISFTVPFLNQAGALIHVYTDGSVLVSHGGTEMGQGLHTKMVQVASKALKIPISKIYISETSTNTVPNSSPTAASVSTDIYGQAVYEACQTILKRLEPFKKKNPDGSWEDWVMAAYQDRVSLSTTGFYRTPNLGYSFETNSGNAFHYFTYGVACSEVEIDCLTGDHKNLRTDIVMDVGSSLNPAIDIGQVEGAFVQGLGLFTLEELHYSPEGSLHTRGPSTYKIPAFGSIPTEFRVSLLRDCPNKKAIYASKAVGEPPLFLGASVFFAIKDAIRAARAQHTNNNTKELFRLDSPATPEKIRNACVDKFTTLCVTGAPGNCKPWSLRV

Turning to `Oc1ncnc2[nH]ncc12` [Allopurinol], the “percent inhibition of xanthine oxidase” value is on record as “approximately 90%”.
